In US8202902B2, “Bivalent SMAC mimetics and the uses thereof” (The Regents of the University of Michigan, priority 2006, dated 2012):
Like-named read-outs stand apart in the source and are kept apart here.

Experiments:
[1] = biological target: T1, XIAP protein containing both BIR2 and BIR3 domains (Homo sapiens, UniProt P98170); assay: Fluorescence-polarization based binding assay, XIAP BIR2-BIR3
T1 construct: XIAP protein containing both BIR2 and BIR3 domains; made in house

[2] = biological target: cIAP-1 protein containing both BIR2 and BIR3 domains (Homo sapiens, UniProt Q13490); assay: Fluorescence-polarization based binding assay, cIAP-1 BIR2-BIR3
Sequence of cIAP-1 protein containing both BIR2 and BIR3 domains (Q13490 174-352 limits assumed): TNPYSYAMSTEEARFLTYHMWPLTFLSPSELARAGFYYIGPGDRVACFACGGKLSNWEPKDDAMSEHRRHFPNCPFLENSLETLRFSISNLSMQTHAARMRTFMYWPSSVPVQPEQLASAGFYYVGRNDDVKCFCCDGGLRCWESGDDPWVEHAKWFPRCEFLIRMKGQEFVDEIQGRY

[3] = biological target: T2, Recombinant XIAP containing linker-BIR2-BIR3 (residues 120-356) (Homo sapiens, UniProt P98170); assay: Cell-free functional assay: antagonism of XIAP inhibition of caspase-3/-7; type: biochemical
T2 construct: Recombinant XIAP containing linker-BIR2-BIR3 (residues 120-356)
T2 sequence (P98170 120-356): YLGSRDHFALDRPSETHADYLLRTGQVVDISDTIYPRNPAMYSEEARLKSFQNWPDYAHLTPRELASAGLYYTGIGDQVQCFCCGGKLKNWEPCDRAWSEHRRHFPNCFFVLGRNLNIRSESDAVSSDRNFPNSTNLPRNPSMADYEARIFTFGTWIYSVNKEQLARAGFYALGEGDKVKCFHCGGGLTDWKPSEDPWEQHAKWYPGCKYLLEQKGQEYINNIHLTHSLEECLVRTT

[4] = tested on: MALME-3M melanoma cell line; assay: Apoptosis assay (Annexin V/P.I.), MALME-3M; type: cell-based; conditions: 1 nM for 12 h
Protocol: (§1) Analysis of apoptosis was performed using an apoptosis detection kit (BioVision Research Products, Mountain View, Calif.) according to the manufacturer's protocol. Briefly, cells were treated with Smac mimetics for 12 hours, harvested and washed with ice-cold PBS. Cells were stained with Annexin V-FITC and Propidium iodide (P.I.) for 15 minutes at room temperature in the dark and immediately analyzed by FACS calibur flow cytometer (Becton Dickinson, Erembodegem, Belgium). Cells that were stained Annexin V (+) and P.I. (−) were considered early-stage apoptotic cells. Cells that were stained annexin V (+) and P.I. (+) were considered late-stage apoptotic cells and cells that were stained annexin V (−) and P.I. (+) were considered necrotic cells (FIG. 6).
(§2) Treatment with SM-164 at 1 nM for 12 h induced 32%, 33%, and 37% of the MDA-MB-231, SK-OV-3 and MALME-3M cells to undergo apoptosis, respectively (FIGS. 12-14).

[5] = tested on: MDA-MB-231 xenograft model; assay: Inhibition of tumor growth in the MDA-MB-231 xenograft model; type: in vivo, mice
Protocol: SM-164 was evaluated for its ability to inhibit tumor growth. […] Treatment with SM-164 at 5 mg/kg reduces the tumor volume from 147±54 mm^3 at the beginning of the treatment (day 25) to 54±32 mm^3 at the end of the treatment (day 36), a reduction of 65%. The strong antitumor activity by SM-164 is long lasting and not transient.

[6] = biological target: cellular XIAP (Homo sapiens, UniProt P98170); conditions: cited from earlier work
Sequence of cellular XIAP (P98170 whole entry): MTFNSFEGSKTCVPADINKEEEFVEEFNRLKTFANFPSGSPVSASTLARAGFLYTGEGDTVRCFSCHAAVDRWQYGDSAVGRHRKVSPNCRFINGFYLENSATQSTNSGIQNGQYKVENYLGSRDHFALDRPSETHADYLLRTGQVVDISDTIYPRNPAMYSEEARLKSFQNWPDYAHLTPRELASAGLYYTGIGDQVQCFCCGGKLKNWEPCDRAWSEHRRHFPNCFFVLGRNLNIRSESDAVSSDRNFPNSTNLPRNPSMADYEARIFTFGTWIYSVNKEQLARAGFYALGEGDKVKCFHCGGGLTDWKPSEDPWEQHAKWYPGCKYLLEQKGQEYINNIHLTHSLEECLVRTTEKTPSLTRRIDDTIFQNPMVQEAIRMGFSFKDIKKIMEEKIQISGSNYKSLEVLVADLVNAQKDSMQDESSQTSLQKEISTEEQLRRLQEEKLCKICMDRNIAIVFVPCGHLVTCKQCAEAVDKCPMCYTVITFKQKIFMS

[7] = tested on: MDA-MB-231, MALME-3M and SK-OV-3 cell lines; assay: Cell death induction with TNFα or TRAIL neutralizing antibody; type: cell-based
[8] = tested on: SK-OV-3 ovarian cancer cell line; assay: Apoptosis assay (Annexin V/P.I.), SK-OV-3; type: cell-based; conditions: 1 nM for 12 h
Protocol: as §1, §2

[9] = tested on: MAMLE-3M cells; assay: Trypan blue cell viability assay, MAMLE-3M; type: cell-based; conditions: 100 nM, 2 days
Protocol: (§3) 0.3×10^6 cells were seeded in 6 well plates and incubated at 37° C. in an atmosphere of 95% air and 5% CO2 without or with tested compound for 2 days. A 1:1 dilution of 0.4% Trypan blue (Invitrogen Corporation) was used to determine cell viability.

[10] = tested on: Sensitive cancer cell lines; assay: Secreted TNFα in cell culture medium (ELISA), sensitive lines; type: cell-based
Protocol: To explore whether the resistance of cancer cells to Smac mimetics is due to the lack of secreted TNFα, the levels of secreted TNFα were examined. Secreted TNFα concentrations were determined in 200 μl of cell culture medium using the Quantikine HS Human TNFα ELISA kit (R&D Systems). The assay was performed according to the manufacturer's instructions.

[11] = tested on: HCT116 and MDA-MB-453 cell lines; assay: Activity with exogenous TNFα in resistant cancer cell lines; type: cell-based
[12] = tested on: XIAP stably transfected Jurkat leukemia cell line (XIAP-JK) and vector control cell line (VEC-JK); assay: XIAP-overexpressing Jurkat cells, Smac mimetics with TNFα; type: cell-based
Text: The effect of XIAP overexpression in cancer cells on TNFα-dependent apoptosis induction by Smac mimetics was investigated. Since stable transfection of XIAP in those sensitive cancer cell lines was unsuccessful, the previously well-characterized XIAP stably transfected Jurkat leukemia cell line (XIAP-JK) and its vector control cell line (VEC-JK) were employed (Wilkinson et al., Mol. Cell. Biol. 24:7003 (2004)). The VEC-JK cell line with low expression of XIAP was sensitive to SM-122 or SM-164 in combination with TNFα (FIG. 43).

[13] = tested on: MDA-MB-231 human breast cancer cell line; assay: Cell growth inhibition, WST-8 assay, MDA-MB-231; type: cell-based
Protocol: (§4) The rate of cell growth inhibition after treatment with different concentrations of the compound was determined using a WST-8 kit (2-(2-methoxy-4-nitrophenyl)-3-(4-nitrophenyl)-5-(2, 4 disulfophenyl)-2H-tetrazolium monosodium salt; Dojindo Molecular Technologies, Inc., Gaithersburg, Md.). WST-8 was added at a final concentration of 10% to each well, and then the plates were incubated at 37° C. for 2-3 hrs. The absorbance of the samples was measured at 450 nm using a ULTRA Tecan Reader (Molecular Device).

[14] = tested on: MDA-MB-231 cells; assay: Trypan blue cell viability assay, MDA-MB-231; type: cell-based, human; conditions: 100 nM, 2 days
Protocol: as §3

[15] = tested on: MDA-MB-231 breast cancer cell line; assay: Apoptosis assay (Annexin V/P.I.), MDA-MB-231; type: cell-based, human; conditions: 1 nM for 12 h
Protocol: as §1, §2

[16] = tested on: MAMEL-3M melanoma cell line; assay: Cell growth inhibition, WST-8 assay, MAMEL-3M; type: cell-based; conditions: 96 h, 4 days
Protocol: as §4, with “Cells were seeded in 96-well flat bottom cell culture plates at a density of 3000 cells/well with a tested compound and incubated at 37° C. in an atmosphere of 95% air and 5% CO2 for 4 days. The rate” for “The rate”

[17] = tested on: OVCAR-4 cells; assay: Trypan blue cell viability assay, OVCAR-4; type: cell-based; conditions: 100 nM, 2 days
Protocol: as §3

[18] = biological target: T3, human XIAP protein (residues 120-356) (Homo sapiens, UniProt P98170); assay: Fluorescence-polarization-based binding assay to XIAP protein (Smac2-F tracer)
T3 construct: human XIAP protein (residues 120-356) (10 nM)
T3 sequence (P98170 120-356): as the sequence (P98170 120-356) above
Protocol: The polarization values were measured after 2 hours incubation, using the Ultra plate reader. […] Curve fitting is performed using GraphPad Prism® software.

T1 sequence (P98170 120-356 limits assumed): as the sequence (P98170 120-356) above

SMILES: CN[C@@H](C)C(=O)N[C@H]1CCCC[C@H]2CC[C@@H](C(=O)N[C@@H](c3ccccc3)c3cn(CCCCc4ccc(CCCCn5cc([C@@H](NC(=O)[C@@H]6CC[C@@H]7CCCC[C@H](NC(=O)[C@H](C)NC)C(=O)N76)c6ccccc6)nn5)cc4)nn3)N2C1=O [SH-164]
- more potent than monovalent SM-122 for binding to XIAP [1]: 300 times
- Ki [2]: 0.31 nM
- more potent than SM-122 to cIAP-1 [2]: 9 times
- more potent than SM-122 in antagonizing XIAP and promoting caspase activity [3]: 60 times
- cells undergoing apoptosis [4]: 37%
- tumor growth during the treatment ([5]; 1 mg/kg): completely inhibits tumor growth
- tumor volume at the beginning of the treatment ([5]; 5 mg/kg, day 25): 147±54 mm^3
- reduction of tumor volume ([5]; 5 mg/kg, day 25 to day 36): 65%
- tumor volume at the end of the treatment ([5]; 5 mg/kg, day 36): 54±32 mm^3
- efficacy compared with TXT ([5]; 5 mg/kg, end of treatment (p<0.01) or control tumor 750 mm^3 (p<0.02)): statistically more effective than TXT
- weight loss or other sign of toxicity ([5]; 1 or 5 mg/kg): no significant weight loss or other sign of toxicity
- more potent than SM-122 in competing off a biotinylated Smac mimetic to cellular XIAP [6]: > 100 times
- cell death induction in presence of neutralizing antibodies [7]: effectively blocked by a TNFα, but not by a TRAIL, neutralizing antibody
- cells undergoing apoptosis [8]: 33%
- cell death [9]: at least 70%
- secretion of TNFα [10]: further enhanced
- effect of exogenous TNFα on activity [11]: significantly enhanced
- sensitivity in combination with TNFα ([12]; VEC-JK cell line): sensitive
- sensitivity in combination with TNFα ([12]; XIAP-JK cell line): much less effective than in the VEC-JK cell line
- IC50 ([13]; MDA-MB-231, 96 h, 4 days, WST-8, read-out: IC50 cell growth inhibition): 1.4 nM
- IC50 ([13]; MDA-MB-231, read-out: IC50 values (nM) In WST-assay (MDA-MB-231)): < 10 nM
- cell death [14]: at least 70%
- cells undergoing apoptosis [15]: 32%
- IC50 [16]: 1.4 nM
- cell death [17]: at least 70%
- binding affinity better than the monovalent Smac mimetic SH-122 [18]: more than 500 fold
- more potent than the natural Smac peptide AVPI [18]: > 5000 times
